The record followed here is PMC10388362, “Fluorescent Ligands Enable Target Engagement Studies for the Intracellular Allosteric Binding Site of the Chemokine Receptor CXCR2” (Journal of Medicinal Chemistry, 2023).

One test has as its target T1, CCR2 (Homo sapiens, UniProt P41597).
T1 construct: host or cells: HEK293T; membrane preparation
T1 sequence (P41597 1-360 isoform P41597-2): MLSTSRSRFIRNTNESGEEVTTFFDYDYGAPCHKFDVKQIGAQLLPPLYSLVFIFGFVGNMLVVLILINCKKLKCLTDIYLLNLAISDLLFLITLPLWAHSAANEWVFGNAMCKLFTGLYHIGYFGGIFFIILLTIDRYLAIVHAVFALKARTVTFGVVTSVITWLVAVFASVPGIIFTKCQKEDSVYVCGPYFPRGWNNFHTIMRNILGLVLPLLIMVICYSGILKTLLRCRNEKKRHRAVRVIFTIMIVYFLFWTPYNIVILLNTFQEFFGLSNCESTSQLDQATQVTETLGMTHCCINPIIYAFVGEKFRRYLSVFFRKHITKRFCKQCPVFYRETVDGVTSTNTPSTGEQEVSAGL
Kind of test: Membrane-based NanoBRET saturation assay, selectivity (CCR2_GSSG_Nluc membranes). As for the experimental part: For the establishment of our NanoBRET binding assay, we referred to a recently published protocol.[45] The fluorescent ligands (9a–c) were dissolved in DMSO (1 mM) and further diluted to varying concentrations in an assay buffer (50 mM Na2HPO4, 50 mM KH2PO4, pH 7.4, 1 mg/mL saponin, 5% FBS) and 5 μL of these dilutions were pipetted to a 384-well plate. To determine the total binding, 5 μL of the assay buffer was added to the corresponding wells, while 5 μL of a solution of 3 in the assay buffer (final assay concentration: 1 μM) was used to determine nonspecific binding. Then, 20 μL of the membrane preparations diluted in the assay buffer (2 μg total protein/well) were added and the plates were incubated for 90 min at 37 °C. Subsequently, 5 μL of a furimazine solution (Promega, Mannheim, Germany, final assay dilution: 1:5000) was added to each well (final assay volume: 35 μL) before measuring luminescence with a CLARIOstar microplate reader using 620/10 and 475/30 nm emission filters after 5 min of incubation in the dark. Bioluminescence resonance energy transfer (BRET) was determined as the ratio of acceptor fluorescence and donor luminescence. […] Specific binding signals were calculated as a difference of total and nonspecific binding. If required, netBRET values were calculated as the difference between total BRET values and the values obtained in the absence of a fluorescent ligand. […]

The target of a further test is T2, CXCR2 (Homo sapiens, UniProt P25025).
T2 construct: Promega pNLF1-C (Nluc) #CXCR20TN00; host or cells: HEK293T, transient transfection (PEI)
T2 sequence (P25025 1-360): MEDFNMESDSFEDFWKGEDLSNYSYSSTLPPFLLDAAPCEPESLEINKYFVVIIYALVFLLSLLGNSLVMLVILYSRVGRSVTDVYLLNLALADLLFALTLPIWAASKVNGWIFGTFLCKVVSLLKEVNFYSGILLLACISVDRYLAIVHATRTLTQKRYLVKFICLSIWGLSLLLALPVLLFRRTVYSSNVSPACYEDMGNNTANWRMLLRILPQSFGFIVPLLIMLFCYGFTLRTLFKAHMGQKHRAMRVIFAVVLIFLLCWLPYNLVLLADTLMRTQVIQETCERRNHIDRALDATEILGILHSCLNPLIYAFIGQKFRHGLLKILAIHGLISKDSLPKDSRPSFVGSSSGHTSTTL
Briefly: Membrane-based NanoBRET saturation assay (CXCR2_Nluc membranes). The note with it: cell-free, membranes from HEK293T cells transiently expressing CXCR2_Nluc; read-out: Kd (equilibrium saturation binding). It is filed as binding. How it is done:
Membranes from HEK293T cells transiently expressing the respective GPCR were prepared as follows. The medium of the transfected cells was refreshed after 24 h before cells were harvested 48 h post-transfection. The growth medium was removed, and the cells were carefully washed with cold phosphate-buffered saline (10 mL per Ø 15 cm dish). The cells were detached with 15 mL of ice-cold Tris-EDTA buffer (10 mM Tris, 0.5 mM EDTA, 5.4 mM KCl, 140 mM NaCl, pH 7.4) and subsequently centrifuged with 218g for 8 min. The supernatant was removed and the cells were resuspended in 10 mL of Tris-EDTA buffer. The cells were lysed with an Ultraturrax (20,000 rpm) used five times for 5 s with a 25 s break on ice in between. The lysate was centrifuged at 50,830g for 18 min at 4 °C. The supernatant was discarded, and the pellet was homogenized in a membrane buffer (50 mM Tris, 1 mM EDTA, 5 mM MgCl2, 100 μg/mL bacitracin, 5 μg/mL soybean trypsin inhibitor, pH 7.4) with a glass-teflon homogenizer. Aliquots of 250 μL were shock-frozen in liquid nitrogen and directly stored at −80 °C. Finally, the protein concentration was determined using the Lowry method.[43]
For the establishment of our NanoBRET binding assay, we referred to a recently published protocol.[45] The fluorescent ligands (9a–c) were dissolved in DMSO (1 mM) and further diluted to varying concentrations in an assay buffer (50 mM Na2HPO4, 50 mM KH2PO4, pH 7.4, 1 mg/mL saponin, 5% FBS) and 5 μL of these dilutions were pipetted to a 384-well plate. To determine the total binding, 5 μL of the assay buffer was added to the corresponding wells, while 5 μL of a solution of 3 in the assay buffer (final assay concentration: 1 μM) was used to determine nonspecific binding. Then, 20 μL of the membrane preparations diluted in the assay buffer (2 μg total protein/well) were added and the plates were incubated for 90 min at 37 °C. Subsequently, 5 μL of a furimazine solution (Promega, Mannheim, Germany, final assay dilution: 1:5000) was added to each well (final assay volume: 35 μL) before measuring luminescence with a CLARIOstar microplate reader using 620/10 and 475/30 nm emission filters after 5 min of incubation in the dark. Bioluminescence resonance energy transfer (BRET) was determined as the ratio of acceptor fluorescence and donor luminescence. The algorithms for one-site saturation binding from PRISM9.5 (GraphPad) were utilized to analyze total, nonspecific, and specific binding. Specific binding signals were calculated as a difference of total and nonspecific binding. If required, netBRET values were calculated as the difference between total BRET values and the values obtained in the absence of a fluorescent ligand. For selectivity studies with CCR2, CCR7, CCR9, and CXCR1, we modified the procedure described above.
Background: Bioluminescence resonance energy transfer reports proximity on the nanometre scale.

Turning to `Cc1ccc([C@H](Nc2c(Nc3cccc(C(=O)NCc4cn(CCOCCOCCOCCNC(=O)c5ccc(C(=O)[O-])c(-c6c7ccc(=[N+](C)C)cc-7oc7cc(N(C)C)ccc67)c5)nn4)c3O)c(=O)c2=O)C(C)(C)C)o1` [9a, (R)-4-((2-(2-(2-(2-(4-((3-((2-((2,2-Dimethyl-1-(5-methylfuran-2-yl)propyl)amino)-3,4-dioxocyclobut-1-en-1-yl)amino)-2-hydroxybenzamido)methyl)-1H-1,2,3-triazol-1-yl)ethoxy)ethoxy)ethoxy)ethyl)carbamoyl)-2-(6-(dimethylamino)-3-(dimethyliminio)-3H-xanthen-9-yl)benzoate], at CCR2, the “binding to CCR2” value is recorded as “no significant binding”. The Kd at CXCR2 amounted to 4.17 ± 0.8 nM.
